# Source: patent publication US20250161279A1, “METHODS OF TREATING MULTIPLE MYELOMA USING BCL-2 INHIBITOR” (BeiGene Switzerland GmbH, priority 2022, published 2025)
# Several values for one entry are separate records, joined by “and”; a condition that tells them apart may be missing. Equal entries are not always repeated.
# Assays:
# [1] = Clinical study, PK of Compound 1 in combination with dexamethasone; format: in vivo, human; conditions: MM patients, 80 to 640 mg target doses
# Protocol: A dose escalation study is conducted to evaluate the safety and tolerability of Compound 1 in combination with dexamethasone and dexamethasone plus carfilzomib in patients with relapsed/refractory (R/R) multiple myeloma (MM) and t (11;14). Also, the corresponding maximum tolerated dose (MTD)/maximum assessed dose (MAD), recommended Phase 2 dose (RP2D) and pharmacokinetics for Compound 1 in the combination therapies are to be observed.
# Compound 1 plus dexamethasone: Patients with R/R MM and t (11;14) receive increasing doses of Compound 1 once daily with starting dose at 80 mg once daily, plus 40 mg of dexamethasone once weekly to determine the safety, tolerability, efficacy, and pharmacokinetics (PK). Upon completion of the dose-limiting toxicity (DLT) window (21 days) and depending on the number of evaluable patients and observed DLTs, the dose of Compound 1 may be de-escalated to 40 mg once daily, stay at 80 mg once daily, or be escalated to 160 mg once daily. Upon dose escalation to 160 mg once daily and provided there are no DLTs observed during the DLT window, the study may be conducted to escalate to a few higher dose levels (up to 640 mg once daily), or to insert some certain intermediate doses between 80 mg and 160 mg once daily.
# [2] = tested on: KMS-12-PE human MM subcutaneous xenograft model; assay: KMS-12-PE xenograft model study: tumor growth; format: in vivo, NCG mice; conditions: for Tumor Volume (mm^3) (Mean ± SEM) Day 17: 17 days
# Protocol: KMS-12-PE, a human MM cell line, was obtained from Deutsche Sammlung von Mikroorganismen und Zellkulturen (DSMZ, Catalog: ACC 606). KMS-12-PE cells were cultured in RPMI 1640 complete medium, supplemented with 20% (v/v) fetal bovine serum, and 100 μg/mL of penicillin and streptomycin. In this study, cells were used within 10 passages of recovery from liquid nitrogen. KMS-12-PE cells were maintained as suspension cultures at 37° C. in a 5% CO2 atmosphere, being passaged twice weekly. […] Resuspended cells were placed on ice prior to inoculation. The right front flank of each mouse was cleaned with 75% ethanol prior to cell inoculation. Each animal was injected subcutaneously with 3×10^7 cells in 200 μL of cells suspension in the right front flank via a 1 mL LS 25GA syringe. […] Body weight was assessed immediately before dosing and volume dosed was adjusted accordingly. Tumor volume was measured twice weekly in two dimensions using a caliper (measurable since day 4 post treatment in this study). Body weights were recorded twice weekly. One individual was responsible for tumor measurement for the duration of the study. Mice were also monitored daily for clinical signs of toxicity. Mice were euthanized using carbon dioxide at the end of the study. The two-dimension diameters of tumor were determined using a caliper. Tumor volume was calculated using the formula: […] Tumor growth inhibition (TGI) was calculated using the following formula: […] Where, treated t=treated tumor volume at time t, treated t0=treated tumor volume at time 0, vehicle t=vehicle tumor volume at time t, vehicle t0=vehicle tumor volume at time 0. The tumor volume on day 17 post treatment was analyzed using ANOVA method on logarithmic scale in SAS Enterprise Guide version: 7.15 HF3. The following comparisons were made among treatment groups, […] The combination therapy was compared to corresponding single agents. […] The EOHSA tests were adjusted by Holm's multiple comparison test. #p<0.05, ####p<0.0001.
# [3] = tested on: patients with R/R MM harboring t (11;14); format: in vivo, human; conditions: 19 patients, 80, 160, 320 and 640 mg QD with dexamethasone, preliminary
# [4] = PK analysis of Compound 1 in KMS-12-PE xenograft mice (plasma, day 14); format: in vivo, NCG mice; conditions: for AUC0-24 h of Compound 1, Day 14 / Cmax of Compound 1, Day 14: plasma; for Individual animal's plasma concentration of Compound 1, 0 h post treatment / Individual animal's plasma concentration of Compound 1, 0.5 h post treatment / Individual animal's plasma concentration of Compound 1, 2 h post treatment / Individual animal's plasma concentration of Compound 1, 8 h post treatment / Individual animal's plasma concentration of Compound 1, 24 h post treatment: day 14, steady state
# Protocol: On day 14 post treatment, blood samples (about 100 μL per mouse) were collected from the retro-orbital sinus under isoflurane/oxygen anesthesia at predose 0, 0.5, 2, 8, and 24 hours after dosing of Compound 1 (3 mice per time point, every mouse was used for 2 or 3 time points). The blood was transferred to the EDTA-K2 anticoagulation tube, and the plasma was collected by centrifugation at 5,600 rpm for 7 min and was kept frozen in −80° C. until analysis.
# For PK analysis, maximum plasma concentration (Cmax) and time to peak (Tmax) were got directly from the plasma concentration versus time graphs. The area under the plasma concentration-time curve (AUC) from time 0 to 24 hours post-dose (AUC0-24h) was calculated.
# [5] = Compound 1 1.5 mg/kg + Dexamethasone 0.1 mg/kg p.o. QD
# [6] = Compound 1 1.5 mg/kg + Dexamethasone 0.1 mg/kg
# [7] = Compound 1 1.5 mg/kg + Dexamethasone 1 mg/kg p.o. QD
# [8] = Compound 1 1.5 mg/kg + Dexamethasone 1 mg/kg
# [9] = Compound 1 1.5 mg/kg p.o. QD, single agent
# [10] = Compound 1 1.5 mg/kg p.o. QD, 1.5 mg/kg
# [11] = Dexamethasone 0.1 mg/kg p.o. QD
smiles,measurement,setting,value
"CC(C)c1ccccc1[C@@H]1CCCN1C1CC2(CCN(c3ccc(C(=O)NS(=O)(=O)c4ccc(NCC5CCC(C)(O)CC5)c([N+](=O)[O-])c4)c(Oc4cnc5[nH]ccc5c4)c3)CC2)C1 (stereo partly drawn) [Compound 1, 2-((1H-pyrrolo[2,3-b]pyridin-5-yl)oxy)-N-((4-((((1r,4r)-4-hydroxy-4-methylcyclohexyl)methyl)amino)-3-nitrophenyl)sulfonyl)-4-(2-((S)-2-(2-isopropylphenyl)pyrrolidin-1-yl)-7-azaspiro[3.5]nonan-7-yl)benzamide]",drug-drug-interaction (DDI) potential between dexamethasone and Compound 1,[1],low
same,TGI (%) Day 17,[2]; Compound 1 1.5 mg/kg p.o. QD,11%
same,Tumor Volume (mm^3) (Mean ± SEM) Day 17,[2]; Compound 1 1.5 mg/kg p.o. QD,1011.7 ± 103.8 mm^3
same,clinical activity / disease control,[3],"demonstrated activity at tested dose levels, and most patients achieved disease control"
same,"AUC0-24 h of Compound 1, Day 14",[4]; [5],107 ng·h/mL
same,"Cmax of Compound 1, Day 14",[4]; [5],29.5 ng/mL
same,"Individual animal's plasma concentration of Compound 1, 0 h post treatment",[4]; [6],BLOQ
same,"Individual animal's plasma concentration of Compound 1, 0.5 h post treatment",[4]; [6],4.02 ng/mL and 5.2 ng/mL and 3.67 ng/mL
same,"Individual animal's plasma concentration of Compound 1, 2 h post treatment",[4]; [6],36.7 ng/mL and 30.9 ng/mL and 20.8 ng/mL
same,"Individual animal's plasma concentration of Compound 1, 8 h post treatment",[4]; [6],3.18 ng/mL and 6.95 ng/mL and 3.59 ng/mL
same,"Individual animal's plasma concentration of Compound 1, 24 h post treatment",[4]; [6],BLOQ
same,"AUC0-24 h of Compound 1, Day 14",[4]; [7],179 ng·h/mL
same,"Cmax of Compound 1, Day 14",[4]; [7],42.4 ng/mL
same,"Individual animal's plasma concentration of Compound 1, 0 h post treatment",[4]; [8],BLOQ
same,"Individual animal's plasma concentration of Compound 1, 0.5 h post treatment",[4]; [8],14.4 ng/mL and 6.94 ng/mL and 9.04 ng/mL
same,"Individual animal's plasma concentration of Compound 1, 2 h post treatment",[4]; [8],54.9 ng/mL and 35.8 ng/mL and 36.4 ng/mL
same,"Individual animal's plasma concentration of Compound 1, 8 h post treatment",[4]; [8],5.15 ng/mL and 7.02 ng/mL and 5.05 ng/mL
same,"Individual animal's plasma concentration of Compound 1, 24 h post treatment",[4]; [8],BLOQ (2×) and 0.692 ng/mL
same,"AUC0-24 h of Compound 1, Day 14",[4]; [9],200 ng·h/mL
same,"Cmax of Compound 1, Day 14",[4]; [9],55.8 ng/mL
same,"exposure (AUC0-24h and Cmax) at steady state, single treatment group versus combo treatment","[4]; Compound 1 1.5 mg/kg p.o. QD, with or without dexamethasone",consistent with that in combo treatment
same,"Individual animal's plasma concentration of Compound 1, 24 h post treatment",[4]; Compound 1 1.5 mg/kg p.o. QD,BLOQ
same,"Individual animal's plasma concentration of Compound 1, 0 h post treatment",[4]; [10],1.09 ng/mL and BLOQ (2×)
same,"Individual animal's plasma concentration of Compound 1, 0.5 h post treatment",[4]; [10],8 ng/mL and 5.72 ng/mL and 9.29 ng/mL
same,"Individual animal's plasma concentration of Compound 1, 2 h post treatment",[4]; [10],62.8 ng/mL and 40.7 ng/mL and 63.9 ng/mL
same,"Individual animal's plasma concentration of Compound 1, 8 h post treatment",[4]; [10],9.97 ng/mL and 9.73 ng/mL and 5.81 ng/mL
C[C@@H]1C[C@H]2[C@@H]3CCC4=CC(=O)C=C[C@]4(C)[C@@]3(F)[C@@H](O)C[C@]2(C)[C@@]1(O)C(=O)CO [Dexamethasone],TGI (%) Day 17,[2]; [11],9%
same,Tumor Volume (mm^3) (Mean ± SEM) Day 17,[2]; [11],1036.5 ± 88.8 mm^3
same,TGI (%) Day 17,[2]; Dexamethasone 1 mg/kg p.o. QD,46%
same,Tumor Volume (mm^3) (Mean ± SEM) Day 17,[2]; Dexamethasone 1 mg/kg p.o. QD,696.0 ± 69.2 mm^3
